According to patent publication US20240101576A1, “HETEROCYCLIC INHIBITORS OF EGFR AND/OR HER2, FOR USE IN THE TREATMENT OF CANCER” (Scorpion Therapeutics, Inc., priority 2020, published 2024):
pIC50: −log10 of the molar value.

Key:
Type in all cases: cell-based
[1] = target: T1, EGFR exon 20 ASV Ins V769_D770 (Ba/F3 cells) (Homo sapiens, UniProt P00533, INS769ASV); assay: Inhibitor activity on EGFR phosphorylation (pEGFR AlphaLISA, 2 h), Ba/F3 EGFR exon 20 ASV Ins; conditions: EGFR phosphorylation, AlphaLISA, 2 hours; read-out: ASV IC50 (pEGFR)
T1 construct: expressed in transfected cells; host or cells: Ba/F3 (murine pro-B cells), retroviral transduction, puromycin selection, IL3-independent pool
T1 sequence (P00533 with tags, fused parts or gaps INS769ASV): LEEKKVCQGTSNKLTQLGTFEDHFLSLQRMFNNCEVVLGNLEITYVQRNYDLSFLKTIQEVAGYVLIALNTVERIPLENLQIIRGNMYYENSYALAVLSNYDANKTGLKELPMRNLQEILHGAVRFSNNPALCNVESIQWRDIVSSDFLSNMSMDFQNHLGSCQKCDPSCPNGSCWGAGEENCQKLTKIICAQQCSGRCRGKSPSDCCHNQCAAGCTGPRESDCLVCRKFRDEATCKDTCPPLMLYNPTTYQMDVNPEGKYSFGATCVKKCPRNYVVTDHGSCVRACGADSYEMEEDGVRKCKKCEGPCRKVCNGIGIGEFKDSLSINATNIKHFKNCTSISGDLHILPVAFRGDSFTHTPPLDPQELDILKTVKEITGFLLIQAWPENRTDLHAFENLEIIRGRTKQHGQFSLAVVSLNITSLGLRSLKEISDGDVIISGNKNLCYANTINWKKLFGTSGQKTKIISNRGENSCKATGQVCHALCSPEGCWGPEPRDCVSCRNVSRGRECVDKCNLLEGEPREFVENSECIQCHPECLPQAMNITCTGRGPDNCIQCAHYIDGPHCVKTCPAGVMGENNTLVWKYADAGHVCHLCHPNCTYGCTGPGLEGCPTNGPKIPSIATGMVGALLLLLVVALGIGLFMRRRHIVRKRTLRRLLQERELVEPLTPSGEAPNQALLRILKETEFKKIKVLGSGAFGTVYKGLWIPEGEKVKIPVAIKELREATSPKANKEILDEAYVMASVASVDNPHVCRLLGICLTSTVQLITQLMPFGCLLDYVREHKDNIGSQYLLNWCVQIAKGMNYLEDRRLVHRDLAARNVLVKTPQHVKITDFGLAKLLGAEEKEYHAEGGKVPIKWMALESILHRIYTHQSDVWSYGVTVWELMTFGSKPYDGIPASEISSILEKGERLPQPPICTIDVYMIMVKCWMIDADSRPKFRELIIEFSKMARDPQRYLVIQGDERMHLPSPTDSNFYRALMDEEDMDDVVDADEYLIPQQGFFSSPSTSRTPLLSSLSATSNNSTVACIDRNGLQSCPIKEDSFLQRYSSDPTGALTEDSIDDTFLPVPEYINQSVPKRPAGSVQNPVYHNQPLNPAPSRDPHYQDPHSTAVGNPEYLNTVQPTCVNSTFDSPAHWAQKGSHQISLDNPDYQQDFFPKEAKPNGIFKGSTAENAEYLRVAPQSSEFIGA
Description: Example B. Inhibitor Activity on EGFR phosphorylation (pEGFR)
EGFR mutant Ba/F3 cells were generated by transduction with retrovirus containing vectors expressing EGFR L858R, EGFR exon 19del, EGFR L858R/C797S, EGFR exon 20 NPG Ins D770_N771, EGFR exon 20 ASV Ins V769_D770, or EGFR exon 20 SVD Ins D770_N771 genes along with a puromycin selection marker. Transduced cells are selected with puromycin for 7 days and are then be transferred into culture media without Interleukin 3 (IL3). Surviving cells are confirmed to express EGFR by Western blot and maintained as a pool. CUTO14 cells were obtained from Dr. Robert C. Doebele at the University of Colorado. The IC50 date are included in Table 6 and Table 7.
1.1 Cells are harvested from flask into cell culture medium and the cell number counted.
1.2 Cells are diluted with culture medium to the desired density and 40 μL of cell suspension is added into each well of 384-well cell culture plate and the seeding density is 50K cells/well (Ba/F3) or 12.5K cells/well (CUTO14).
2 Compound Preparation and Treatment
2.1 Test compounds are dissolved to 10 mM in a DMSO stock solution. 45 μL of stock solution is transferred to a 384 polypropylene plate (pp-plate). Perform 3-fold, 10-point dilution via transferring 15 μL compound into 30 μL DMSO using a TECAN (EVO200) liquid handler.
2.2 Spin plates at room temperature at 1,000 RPM for 1 minute.
2.3 Transfer 5 nL of diluted compound from compound source plate into the cell plate.
2.4 After compound treatment for 2 hours, perform pEGFR detection by AlphaLISA for compound treatment plates as described in “Detection” section.
3 Detection by pEGFR AlphaLISA (Perkin-Elmer)
3.1 Plates are removed from incubators and equilibrated at room temperature for 10 minutes, and media was removed
3.2 10 μL of lysis buffer is added and plates shaken at 600 rpm for 1 hr.
3.3 Prepare acceptor mix just before use and dispense 5 μL of acceptor mix to all the wells. Shake 350 rpm for Ihr in the dark
3.4 Prepare donor mix under low light conditions prior to use. Dispense 5 μL of donor mix to all the wells. Mix well on the shaker, seal and wrap in aluminum foil and incubate 1.5 hrs at room temperature in the dark
3.5 Transfer 18.5 μL mixture to OptiPlate 384, and read using an Envision. The IC50 date were included in Table 6 and Table 7.

EGFR WT (Ba/F3 cells) = target: T2, EGFR WT (Ba/F3 cells) (Homo sapiens, UniProt P00533); assay: Inhibitor activity on EGFR-dependent cell growth (CellTiter-Glo, 72 h), Ba/F3 EGFR WT; conditions: read-out: BaF3 WT IC50
T2 construct: expressed in transfected cells; host or cells: Ba/F3 (murine pro-B cells), retroviral transduction, puromycin selection, maintained with EGF
T2 sequence (P00533 25-1210): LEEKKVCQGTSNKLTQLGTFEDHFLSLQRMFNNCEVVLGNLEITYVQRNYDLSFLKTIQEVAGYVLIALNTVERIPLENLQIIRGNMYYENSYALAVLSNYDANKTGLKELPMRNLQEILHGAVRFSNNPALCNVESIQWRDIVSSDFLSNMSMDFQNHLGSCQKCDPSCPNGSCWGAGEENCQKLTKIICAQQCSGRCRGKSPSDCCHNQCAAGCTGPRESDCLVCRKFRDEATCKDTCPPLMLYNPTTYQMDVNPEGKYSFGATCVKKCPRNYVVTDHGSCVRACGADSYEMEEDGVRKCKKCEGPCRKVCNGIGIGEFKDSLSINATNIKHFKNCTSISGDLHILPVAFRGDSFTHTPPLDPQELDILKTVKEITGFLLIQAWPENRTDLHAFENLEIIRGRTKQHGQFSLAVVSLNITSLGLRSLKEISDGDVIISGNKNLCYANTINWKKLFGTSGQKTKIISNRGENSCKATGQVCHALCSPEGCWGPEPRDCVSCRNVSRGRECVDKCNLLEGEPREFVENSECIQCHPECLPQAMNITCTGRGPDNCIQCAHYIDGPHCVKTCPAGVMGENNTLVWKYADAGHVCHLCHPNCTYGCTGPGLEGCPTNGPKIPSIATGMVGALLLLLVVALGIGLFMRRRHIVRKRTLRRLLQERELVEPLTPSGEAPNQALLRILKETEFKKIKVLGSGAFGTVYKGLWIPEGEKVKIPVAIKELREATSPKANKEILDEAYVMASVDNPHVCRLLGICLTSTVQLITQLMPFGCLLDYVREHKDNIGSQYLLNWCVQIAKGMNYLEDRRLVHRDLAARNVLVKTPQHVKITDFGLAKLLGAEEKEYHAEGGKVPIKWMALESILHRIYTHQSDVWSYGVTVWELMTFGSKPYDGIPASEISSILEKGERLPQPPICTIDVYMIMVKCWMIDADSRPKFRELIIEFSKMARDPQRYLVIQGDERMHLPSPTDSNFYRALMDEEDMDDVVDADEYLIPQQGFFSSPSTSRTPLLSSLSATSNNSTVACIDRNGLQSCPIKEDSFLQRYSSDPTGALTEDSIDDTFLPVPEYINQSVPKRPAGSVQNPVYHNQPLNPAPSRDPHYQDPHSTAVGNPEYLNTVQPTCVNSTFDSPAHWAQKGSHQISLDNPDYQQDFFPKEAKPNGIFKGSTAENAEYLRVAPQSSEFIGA
How it was run: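 This growth assay used Ba/F3 cells that depend on wild-type EGFR and are kept in EGF without IL3. Compounds were made up as 10 mM DMSO stocks and diluted 3-fold over 10 points. 120 nL went onto 600 cells/well. After 72 hours, 40 μL CellTiter-Glo was added and luminescence read on EnVision after 30 min.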

[2] = target: T3, EGFR exon 20 FQEA Ins A763_V764 (Ba/F3 cells) (Homo sapiens, UniProt P00533, INS763FQEA); assay: Inhibitor activity on EGFR-dependent cell growth (CellTiter-Glo, 72 h), Ba/F3 EGFR exon 20 FQEA Ins; conditions: read-out: BaF3 FQEA IC50
T3 construct: expressed in transfected cells; host or cells: Ba/F3 (murine pro-B cells), retroviral transduction, puromycin selection, IL3-independent pool
T3 sequence (P00533 with tags, fused parts or gaps INS763FQEA): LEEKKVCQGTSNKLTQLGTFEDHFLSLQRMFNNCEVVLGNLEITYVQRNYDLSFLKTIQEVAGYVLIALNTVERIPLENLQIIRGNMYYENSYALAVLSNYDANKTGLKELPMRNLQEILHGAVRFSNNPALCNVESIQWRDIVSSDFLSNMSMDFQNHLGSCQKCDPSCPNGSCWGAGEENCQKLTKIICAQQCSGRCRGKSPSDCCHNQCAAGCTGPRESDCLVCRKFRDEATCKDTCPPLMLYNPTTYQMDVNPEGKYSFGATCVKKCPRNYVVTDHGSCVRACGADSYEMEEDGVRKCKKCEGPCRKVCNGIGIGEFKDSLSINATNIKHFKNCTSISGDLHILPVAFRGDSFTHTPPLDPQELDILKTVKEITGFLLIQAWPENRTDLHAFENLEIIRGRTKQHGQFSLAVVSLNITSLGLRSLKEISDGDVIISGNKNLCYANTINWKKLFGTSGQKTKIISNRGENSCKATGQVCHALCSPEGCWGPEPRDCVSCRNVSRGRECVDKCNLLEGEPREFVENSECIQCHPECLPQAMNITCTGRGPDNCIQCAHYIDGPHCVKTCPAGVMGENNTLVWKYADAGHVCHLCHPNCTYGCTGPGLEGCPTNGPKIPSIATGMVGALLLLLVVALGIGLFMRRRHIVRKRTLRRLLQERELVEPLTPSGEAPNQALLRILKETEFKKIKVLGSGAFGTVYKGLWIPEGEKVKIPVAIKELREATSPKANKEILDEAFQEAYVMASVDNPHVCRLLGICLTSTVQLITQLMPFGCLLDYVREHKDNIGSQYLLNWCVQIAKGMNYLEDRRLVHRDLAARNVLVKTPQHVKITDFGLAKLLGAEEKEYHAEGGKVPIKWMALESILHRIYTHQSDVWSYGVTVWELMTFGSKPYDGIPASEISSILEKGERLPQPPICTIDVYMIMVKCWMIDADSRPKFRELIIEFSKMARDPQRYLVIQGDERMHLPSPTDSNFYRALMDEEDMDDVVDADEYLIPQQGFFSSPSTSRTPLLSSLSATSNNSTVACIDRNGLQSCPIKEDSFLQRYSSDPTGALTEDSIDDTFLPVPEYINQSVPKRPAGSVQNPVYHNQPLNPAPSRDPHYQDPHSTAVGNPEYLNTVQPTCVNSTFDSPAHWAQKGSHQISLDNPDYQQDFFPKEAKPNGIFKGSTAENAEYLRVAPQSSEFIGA
How it was run: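 Ba/F3, retrovirally transduced, puromycin-selected, grown without IL3; cells/well: L858R 400, L858R/C797S 600, exon 19del 800, FQEA 800. Cpds from 10 mM DMSO stock, 3-fold ×10 dilution, 120 nL per well; 72 h. CTG readout; IC50 via Hill equation.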

[3] = target: T4, EGFR exon 20 SVD Ins D770_N771 (Ba/F3 cells) (Homo sapiens, UniProt P00533, INS770SVD); assay: Inhibitor activity on EGFR-dependent cell growth (CellTiter-Glo, 72 h), Ba/F3 EGFR exon 20 SVD Ins; conditions: read-out: BaF3 SVD IC50
T4 construct: expressed in transfected cells; host or cells: Ba/F3 (murine pro-B cells), retroviral transduction, puromycin selection, IL3-independent pool
T4 sequence (P00533 with tags, fused parts or gaps INS770SVD): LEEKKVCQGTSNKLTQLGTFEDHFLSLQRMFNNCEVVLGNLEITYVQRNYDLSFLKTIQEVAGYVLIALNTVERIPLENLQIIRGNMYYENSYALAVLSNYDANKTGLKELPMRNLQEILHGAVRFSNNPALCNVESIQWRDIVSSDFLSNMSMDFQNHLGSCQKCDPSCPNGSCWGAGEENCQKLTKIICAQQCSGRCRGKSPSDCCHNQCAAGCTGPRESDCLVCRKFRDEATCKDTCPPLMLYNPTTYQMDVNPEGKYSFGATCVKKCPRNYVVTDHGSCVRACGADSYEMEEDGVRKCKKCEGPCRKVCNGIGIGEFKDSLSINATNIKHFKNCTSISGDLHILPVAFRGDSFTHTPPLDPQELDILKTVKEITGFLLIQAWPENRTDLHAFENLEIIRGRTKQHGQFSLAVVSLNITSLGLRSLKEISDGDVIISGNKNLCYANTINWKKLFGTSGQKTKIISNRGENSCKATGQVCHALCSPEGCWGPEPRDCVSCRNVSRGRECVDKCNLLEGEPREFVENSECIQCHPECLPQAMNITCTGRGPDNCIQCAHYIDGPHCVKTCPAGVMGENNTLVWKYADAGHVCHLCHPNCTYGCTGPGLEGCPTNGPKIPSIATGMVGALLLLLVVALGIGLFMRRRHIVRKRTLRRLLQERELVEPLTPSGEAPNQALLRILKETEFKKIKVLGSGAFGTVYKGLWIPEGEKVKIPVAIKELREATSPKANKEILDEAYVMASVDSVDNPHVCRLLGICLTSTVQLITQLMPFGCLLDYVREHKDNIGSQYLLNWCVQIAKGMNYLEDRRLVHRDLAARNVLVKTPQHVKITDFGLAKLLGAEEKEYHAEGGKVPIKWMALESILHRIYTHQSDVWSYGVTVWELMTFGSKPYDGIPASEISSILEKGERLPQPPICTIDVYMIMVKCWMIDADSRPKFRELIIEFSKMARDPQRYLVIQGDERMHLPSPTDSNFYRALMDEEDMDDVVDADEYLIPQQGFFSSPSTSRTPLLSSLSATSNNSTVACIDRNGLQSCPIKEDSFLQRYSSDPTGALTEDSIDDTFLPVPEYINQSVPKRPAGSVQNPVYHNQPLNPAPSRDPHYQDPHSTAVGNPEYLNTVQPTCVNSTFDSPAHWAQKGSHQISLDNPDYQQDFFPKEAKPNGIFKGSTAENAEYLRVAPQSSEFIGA
How it was run: (§1)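 IC50s derive from a sigmoidal dose–response fit of CellTiter-Glo signal. The signal was normalised between […]-treated cells and cell-free medium. Ba/F3 mutant-EGFR cells, seeded at 400–800/well depending on the line, had 72 h of exposure to a 10-point, 3-fold compound series.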

[4] = target: T1, EGFR exon 20 ASV Ins V769_D770 (Ba/F3 cells); assay: Inhibitor activity on EGFR-dependent cell growth (CellTiter-Glo, 72 h), Ba/F3 EGFR exon 20 ASV Ins; conditions: read-out: BaF3 ASV IC50
How it was run: as §1

Row | pIC50 [1] | pIC50 (EGFR WT (Ba/F3 cells)) | pIC50 [2] | pIC50 [3] | pIC50 [4] | Compound
1 | < 6.00 | < 6.00 | < 6.00 | < 6.00 | < 6.00 | COc1cccc(Nc2c(-c3ccnc(N)n3)[nH]c3c2C(=O)NCC3)c1Cl [compound 301]
2 | 6.00 to 7.00 | < 6.00 | < 6.00 | 6.00 to 7.00 | 6.00 to 7.00 | COc1c(Cl)cccc1Nc1c(-c2ccnc(NCc3ccccc3)n2)[nH]c2c1C(=O)NCC2 [compound 209]
3 | 6.00 to 7.00 | < 6.00 | < 6.00 | < 6.00 | < 6.00 | CCOc1c(F)cccc1Nc1c(-c2ccnc(N)n2)[nH]c2c1C(=O)NCC2 [Compound 699, 2-(2-aminopyrimidin-4-yl)-3-[(2-ethoxy-3-fluorophenyl)amino]-1H,5H,6H,7H-pyrrolo[3,2-c]pyridin-4-one; trifluoroacetic acid]
4 | < 6.00 | < 6.00 | < 6.00 | < 6.00 | < 6.00 | CNc1cc(-c2[nH]c3c(c2Nc2cccc(Cl)c2OC)C(=O)NCC3)ncn1 [compound 284]
5 | < 6.00 | < 6.00 | 6.00 to 7.00 | < 6.00 | < 6.00 | Nc1nccc(-c2[nH]c3c(c2Nc2ccc(F)c(F)c2)C(=O)NCC3)n1 [compound 203]
6 | < 6.00 | < 6.00 | < 6.00 | < 6.00 | < 6.00 | COc1cccc(Nc2c(-c3ccnc(N)n3)[nH]c3c2C(=O)NCC3)c1C [Compound 705, 2-(2-aminopyrimidin-4-yl)-3-[(3-methoxy-2-methylphenyl)amino]-1H,5H,6H,7H-pyrrolo[3,2-c]pyridin-4-one]
7 | > 7.00 | 6.00 to 7.00 | > 7.00 | > 7.00 | > 7.00 | COc1c(Cl)cccc1Nc1c(-c2ccnc(N)n2)[nH]c2c1C(=O)NC[C@@H]2C [186a]
8 | 6.00 to 7.00 | < 6.00 | < 6.00 | < 6.00 | < 6.00 | COc1c(Cl)cccc1Nc1c(-c2ccnc(NCC3CC(F)(F)C3)c2)[nH]c2c1C(=O)NCC2 [compound 711]
9 | < 6.00 | < 6.00 | < 6.00 | < 6.00 | < 6.00 | COc1c(Cl)cccc1Nc1c(-c2nc(N)ncc2C#N)[nH]c2c1C(=O)NCC2 [Compound 693, 2-amino-4-[3-[(3-chloro-2-methoxyphenyl)amino]-4-oxo-1H,5H,6H,7H-pyrrolo[3,2-c]pyridin-2-yl]pyrimidine-5-carbonitrile]
10 | 6.00 to 7.00 | < 6.00 | < 6.00 | < 6.00 | < 6.00 | C#Cc1cccc(Nc2c(-c3ccnc(N)n3)[nH]c3c2C(=O)NCC3)c1OC [Compound 703, 2-(2-aminopyrimidin-4-yl)-3-[(3-ethynyl-2-methoxyphenyl)amino]-1H,5H,6H,7H-pyrrolo[3,2-c]pyridin-4-one]
11 | 6.00 to 7.00 | < 6.00 | < 6.00 | < 6.00 | < 6.00 | Nc1nccc(-c2[nH]c3c(c2Nc2cccc4ccoc24)C(=O)NCC3)n1 [compound 307]
12 | < 6.00 | < 6.00 | < 6.00 | < 6.00 | < 6.00 | COc1c(Nc2c(-c3ccnc(N)n3)[nH]c3c2C(=O)NCC3)cccc1C(C)=O [compound 728, 3-[(3-acetyl-2-methoxyphenyl)amino]-2-(2-aminopyrimidin-4-yl)-1H,5H,6H,7H-pyrrolo[3,2-c]pyridin-4-one]
13 | > 7.00 | 6.00 to 7.00 | 6.00 to 7.00 | > 7.00 | > 7.00 | COc1c(Cl)cccc1Nc1c(-c2ccnc(N)c2F)[nH]c2c1C(=O)NCC2 [Compound 686, 2-(2-amino-3-fluoropyridin-4-yl)-3-[(3-chloro-2-methoxyphenyl)amino]-1H,5H,6H,7H-pyrrolo[3,2-c]pyridin-4-one; trifluoroacetic acid]
